# In EP0462621A2, “Use of particular compounds for manufacture of pharmaceutical formulations for treatment against various parasites, mycoplasmas, other indications and other infections” (Prendergast, Patrick Thomas, priority 1990, dated 1991):
# Legend:
# Monocytes = test: Experiment la(f): monocyte spontaneous migration (agarose droplet); assay type: cell-based, human; conditions: for Total Area (mm^2) Migration: Table Ia(f)(ii)
# Protocol: Monocytes from each human donor were incubated for 30 minutes with three different dose levels of compound la in triplicate. These cells were added to agarose and droplets of agarose containing cells were added to small chambers. A chemotaxis agent was added to induce enhanced migration of the mononuclear cells. The detailed assay procedures are described below.
# Cell migration patterns of triplicates within 30% of each other were generally accepted.
# • 1. Add 6 ml Phosphate Buffered Saline (PBS) 2X to 7 ml of Percoll. • 2. Add mixture to 15 ml polycarbonate centrifuge tubes (Sorvall ^*03243, 18 x 100 mm, pt. ^*00770 50/box, w/caps). ' • 3. Centrifuge tubes at 21,000 x g for 45 minutes (Sorvall, RC2-B centrifuge w/SS-34 rotor, 34 fixed angle, -15,000 rpm w/Drake off @ 4 C). Percoll gradient is good for two weeks. • 4. Mononuclear cells are separated from whole blood by differential centrifugation using a synthetic separation medium. • 5. Cells are washed 2X with Basal Salt Solution (BSS). • 6. Resuspend cells in BSS + 10% BCS, then add mixture to 50 ml centrifuge tubes containing 30-40 ml of Bovine Calf Serum (BCS) and centrifuge at 400 x g for 10 minutes. • 7. Resuspend cells in BSS without BCS. • 8. Determine viable cell number. • 9. Adjust concentration of cells to […]. • 10. Carefully layer 2 ml of cells on top of Percoll gradient. Centrifuge tubes at 100 x g for 20 minutes at 4°C with brake off. • 11. Monocyte layer is harvested with a pasteur pipet and aliquoted into a 50 ml centrifuge tube. Dead cells are in the top band. Monocytes are about 5 ml above middle gradient. Lymphocytes are about 5 ml below middle gradient. […] Wash cells 3X in BSS without BCS. • 13. Resuspend cells in desired media. • 14. Perform esterase stain on monocyte cell suspension to determine ratio of monocytes. Ratio ranges from 50 - 80%.
# • 1. A 0.4% solution of Agarose (Seakem HE) and distilled H20 is prepared, aliquoted into 1 dram vials, autoclaved and stored at 4° C until used. • 2. A suspension of […] cells in Media 199 2X containing glutamine 2mM, gentamicin 50 µg/ml and bovine calf serum-heat inactivated (56° C, […]) 20%, is combined with an equal amount of 0.4% Agarose. • 3. A 5 µl droplet of cell/agarose mixture is added to the centre of a Sterilin plate (Surrey, England). • 4. A 2 µl droplet of agarose/media mixture is added 3-5mm to one side of the cell/agarose droplet and a 2 µl droplet of agarose/chemo-attractant (N-formyl-L-methionyl-L-Leucyl-L-Phenylalanine 10^-4 M(F-Met-Leu-Phe)) is added 3-5mm to the other side of the cell/agarose droplet. • 5. The droplets are allowed to solidify, after which 0.5 ml of RPMI-1640 containing glutamine 2mM, gentamicin 50, µg/ml and bovine calf serum 10% is added to the well. A cover slip is then placed over the well. • 6. The plate is incubated at 37° C, 5% C02/air humified for approximately 18 hours. • 7. The plate is removed from the incubator and the distance the cells have moved towards the media control and the chemoattractant droplets is traced and measured.
# [1] = Case study one: AIDS patient treated with IPA; assay type: in vivo, human; conditions: IPA from February 1989
# Protocol: A case study of an AIDS patient one, was conducted. Patient one began treatment with IPA in February 1989, while in a nearly moribund condition, suffering from depression, exhaustion, bronchial infection, severe diarrhoea, severe weight loss (weight in February was 98 lbs.), complete loss of appetite and spiked fever. […] By March 21, 1989, patient one stated that they felt cured and abruptly (unilaterally) stopped taking IPA, resulting in dramatic deterioration of their condition. In May, 1989, patient one resumed IPA therapy, and experienced dramatic recovery. At the end of May, 1989, patient one again stopped taking IPA, and their condition again deteriorated. Again IPA treatment was restarted, and patient one's condition improved. In early June, 1989, patient one again stopped IPA therapy and died several weeks later.
# The study concluded that patient one would have apparently enjoyed appreciable therapeutic benefits from IPA if they had conscientiously and continuously received IPA medication.
# T. cruzi = T. cruzi intracellular amastigote (AM) in-vitro screen; assay type: cell-based
# Protocol: Dividing populations can be cultivated in muscle cells, fibroblasts and macrophages, following infection with trypomastigotes. After the initial infection, there is normally a period of 4-5 days during which the amastigotes divide before transforming, via the epimastigote stage, back to trypomastigotes which escape from the cell. Drug activity is measured during this 4-5 day period. A dividing host cell population, low infection rate, and the presence of trypomastigotes in the overlay can complicate the interpretation of results.
# Intracellular amastigote models can use a range of muscle (skeletal and cardiac) and fibroblast (e.g. HeLa, HePa) cell lines, macrophages, and chick embryo cells. […] To overcome the problems of overgrowth of the monolayer and a low percentage of infected cells, often associated with the use of cell lines, irradiated rat L6 myoblasts are used.
# HIV-1 = HIV-1 production from patients' lymphocytes cocultured with PHA-stimulated normal PBL, p24 antigen capture; assay type: cell-based; conditions: 3.75 µM or higher; Figure 14
# Protocol: HIV-1 production from an AIDS patients' lymphocytes was carried out as described previously. Briefly, 10x10^6 patients' lymphocytes were cocultured with 5x10^6 PHA-stimulated normal PBL in RPMI 1640 medium containing 20% FBS, 5% interleukin 2 (Cellular Products, Buffalo, NY) and various concentrations of IPA. The culture was continued for 4 weeks. The culture was fed twice a week with 2-3x10^6 PHA-stimulated normal PBL. Culture medium was withdrawn twice a week and tested for the presence of HIV by the antigem capture test. Culture medium was replaced with new medium with or without drug at 3-4 days intervals.
# A study of IPA inhibition of HIV-1 production from lymphocytes of a HIV-1 seropositive patient was carried out. For this purpose, lymphocytes from an AIDS patient and an asymtomatic patient were cocultured with PHA stimulated PBL in the presence or absence of IPA. Results shown in Figure 14 indicate that IPA inhibited HIV-1 production in a dose dependent manner. […] In contrast, HIV-1 was detected in untreated cultures as early as 7 days following cocultivation.
# [2] = Case study: AIDS patient with hairy leukoplakia, IPA oral fluid dose or mouth wash; assay type: in vivo, human
# From the text: When the indication reappeared, following a period of time (several days), the administration of the compound gave further relief.
# [3] = system: monocyte/macrophage cultures; test: Appearance and differentiation of monocyte/macrophage cultures in Experiment la(a); assay type: cell-based
# Protocol: Fresh macrophage cultures were obtained by incubation of mononuclear cells obtained from a leukopak directly in the wells of a microtiter plate having 6 wells per row. After removal of non-adherent cells, each row of the adherent macrophages was infected with 10-fold serial dilutions of HIV-I, with the use of polybrene to enhance uptake of the virus. After one to two hours, the virus inoculum was removed and replaced with fresh normal growth medium. The fresh medium for each row contained a particular concentration of AZT, dideoxy cytidine (ddC), or compound la, as indicated by the left-hand column of Table la(a). The first row of wells acted as a control, and to it was added fresh medium containing none of the three drugs. Medium levels were maintained for two to four weeks to allow replication of the virus to take place, with at least one complete fluid change to remove residual virus inoculum. The contents of each well were then tested for the level of HIV p24 antigen present using a commercially available antigen capture kit employing a radio-immunoassay which can detect as little as 10'^9gm of p24 present in a sample. The above procedure was done in duplicate runs.
smiles,measurement,setting,value
"CC(C)=CCNc1ncnc2c1ncn2[C@@H]1O[C@H](CO)[C@@H](O)[C@H]1O [IPA, N^6-(Δ^2-isopentenyl) adenosine]",reduction in spontaneous migration,Monocytes; 30 µM,15%
same,spontaneous migration,Monocytes; 0.1 - 0.3 µM,Enhanced spontaneous migration
same,reduction in the ability of the monocytes to spontaneously migrate,Monocytes; 100 - 1000 µM,22-37%
same,Total Area (mm^2) Migration,"Monocytes; IPA 5 µM, media 9085",7952 mm^2
same,Total Area (mm^2) Migration,"Monocytes; IPA 10 µM, media 9085",6846 mm^2
same,Total Area (mm^2) Migration,"Monocytes; IPA 15 µM, media 9085",6300 mm^2
same,Total Area (mm^2) Migration,"Monocytes; IPA 20 µM, media 8732",6804 mm^2
same,Total Area (mm^2) Migration,"Monocytes; IPA 25 µM, media 8732",6435 mm^2
same,Total Area (mm^2) Migration,"Monocytes; IPA 30 µM, media 8732",5795 mm^2
same,T and B lymphocyte competence,[1],major rapid recovery
same,"activity, intracellular AM",T. cruzi; T. cruzi strain Sonya,"++(Y,Sonya)"
same,"activity, intracellular AM",T. cruzi; T. cruzi strain Y,"++(Y,Sonya)"
same,Virus production (HIV-1 p24 antigen capture assay),HIV-1,completely blocked
same,relief of hairy leukoplakia,[2],complete relief
same,time to relief of the indication,[2],within seven days
same,appearance of monocyte/macrophage cultures,[3]; all concentrations of IPA used (3-1000 μM),appeared to be healthy
same,differentiation of small immature monocytes into large adherent macrophage cells,[3]; in the presence of IPA,did not take place
